Measured values taken from patent US7781580B2, “Stilbene derivatives as new cancer therapeutic agents” (Virginia Commonwealth University, priority 2007, dated 2010).
pIC50: −log10 of the molar value.

Legend:
Tubulin (>99% pure) = test: tubulin polymerization assay (OD 340 nm); format: biochemical; settings: OD340 nm; nocodazole and paclitaxel 10 μM
MDA-MB231 cells = test: immunofluorescent staining of tubulin, MDA-MB231; format: cell-based; settings: CA4 10 nM, stilbene 4a 100 nM, vincristine 100 nM, 5b 3 μM; 16 hours
Source text: Nuclei were stained with 4′,6-diamidino-2-phenylindole (DAPI). Control cells show the reticular pattern of the microtubule network.

Chk2−/− cells = test: cell cycle analysis, Chk2-/- MDA-MB231 derivative; format: cell-based
Experimental: Cells were treated with various concentrations of stilbene 4a or CA4 for 16 hours followed by PI staining and FACscan analysis. […] A unique feature of stilbene 4a was noted when cells were treated with 30 nM.
Due to the structural similarity between stilbene 4a and CA4, we investigated the difference in the biological activity of these two compounds in MDA-MB231 breast cancer cells and their Chk2−/− derivatives. […] MDA-MB231 cells were treated with 10 nM stilbene 4a or 1 nM CA4. […] However, a difference in cell cycle change was observed following treatment with 30 nM of stilbene 4a versus 3 nM of CA4. […] This was also the case for cells treated with 100 nM stilbene 4a. A significant subG1/0 population was also noted. […] One possible effect could be a DNA damage response, which is a common mechanism of multiple chemotherapeutic agents but not one of pure microtubule-interfering agents such a paclitaxel or vincristine. […] We then obtained conditional Chk1−/− and Chk2−/− cells, which were derived from the same MDA-MB231 cells for the same flow cytometry analysis. […] In contrast, Chk2−/− cells were more sensitive to stilbene 4a. […] This mechanism is not obvious in higher drug concentrations at which the G2 arrest from microtubule interference is dominant. Therefore, in addition to their microtubule interfering effect, stilbenes have another mechanism to induce cell death. Thus, the use of a Chk2 inhibitor in combination with stilbenes may be a viable approach to enhancing the beneficial therapeutic effects of stilbenes.

UCI101 cells = test: immunofluorescent staining of tubulin, UCI101; format: cell-based; settings: CA4 10 nM, stilbene 4a 100 nM, 5b 3 μM; 16 hours
Source text: Nuclei were stained with DAPI.

[1] = test system: HL60 leukemic cells (xenograft); test: HL60 xenograft model in SCID mice; format: in vivo
Experimental: FIG. 20. Effect of stilbene 4a in vivo. (a) Induction of cell death in vivo by stilbene 4a. Tumor was harvested at 24 hours after treatment for TUNEL assay. (b) Histological sections of tumor. Tumor harvested at 24 hours after injection of stilbene 4a was analyzed by H & E staining. The area with lighter color is the necrotic region. (c) Tumor growth suppression. SCID mice were injected subcutaneously with 5×10^6 HL60 cells at each flank. Once the diameter of tumor reached 5 mm in diameter in majority of mice, mice were treated with 5 daily injection of stilbene 4a. Tumor volume was calculated by the long and short axis of tumor and plotted against days. Each group contains 5 mice.
HL60 leukemic cells were injected subcutaneously into ICR-scid mice (Taconic Inc.) on flank. After tumor becomes visible after 12 days, Mice will be treated with stilbene 4a by intravenous injection after dissolved in 10% DMSO in normal saline. For acute effect study, mice were sacrificed 24 hours after injection and tumor and bone marrow were harvested for histological staining and flow cytometry analysis. For long term effect study, stilbenes were injected intravenously from tail veins at 2 or 10 mg/kg for 5 consecutive days. Negative control mice were treated with 10% DMSO in normal saline and positive control mice were treated with Ara-C at 5 mg/kg. Tumor volume was measured twice a week for 4 weeks by the long and short axes of tumor. Volume was calculated by the formula ab^2/2, in which “a” represents the long axis and “b” the short axis of tumor. Mice were euthanized if the calculated tumor reached 10% of the body weight.

[2] = test system: SKOV3 ovarian cancer cells; test: Alamar Blue cell growth inhibition, SKOV3; format: cell-based
Summary of the method: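 SKOV3 cells at 50% confluence were treated 48 h with compounds, against 0.1% DMSO vehicle controls. Growth was read by Alamar Blue absorbance at 570 and 600 nm, with % growth inhibition from the manufacturer's extinction-coefficient formula. Each concentration was run in triplicate.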

COc1cc(/C=C\c2ccc(OC)c(N)c2)cc(OC)c1 [4a, (Z)-5-[2-(3,5-Dimethoxy-phenyl)-vinyl]-2-methoxy-phenylamine]
effect on tubulin polymerization (Tubulin (>99% pure)): suppressed polymerization in a dose-dependent manner
microtubule pattern (MDA-MB231 cells): did not completely disrupt microtubule formation
cell cycle change at 10 nM (Chk2−/− cells; 10 nM): a significant subG1/0 population developed without G2 arrest
change of effective concentration versus MDA-MB231 (Chk2−/− cells; 16 hours): decreased by three fold
microtubule pattern (UCI101 cells): partial disruption of microtubules
tumor growth suppression ([1]; 10 mg/kg intravenously daily for 5 days, 12 days after the first injection): 50%
percentage of apoptosis in tumor (TUNEL) ([1]; 10 mg/kg intravenously, 24 hours): 22%
percentage of apoptosis in tumor (TUNEL) ([1]; 50 mg/kg intravenously, 24 hours): 62%
percentage of apoptosis in tumor (TUNEL) ([1]; 100 mg/kg intravenously, 24 hours): 58%
bone marrow TUNEL (acute marrow toxicity) ([1]; 50 and 100 mg/kg, 24 hours): No increase in TUNEL positive cells was observed
pIC50 ([2]; Homo sapiens, SK-OV-3): 7.00 to 7.30
effective / active concentration ([2]; SKOV3, 48 hours): 0.1 µM
